Results: US20260256792A1, “TREATMENT OF CHRONIC SPONTANEOUS URTICARIA BY ADMINISTERING (R)-2-[3-[4-AMINO-3-(2-FLUORO-4-PHENOXY-PHENYL)PYRAZOLO[3,4-D]PYRIMIDIN-1-YL]PIPERIDINE-1-CARBONYL]-4-METHYL-4-[4-(OXETAN-3-YL)PIPERAZIN-1-YL]PENT-2-ENENITRILE” (priority 2023, published 2026)

Tested on: angioedema in CSU patients
Experiment: Phase 2 CSU study: angioedema activity score over 7 days (AAS7)
Assay type: in vivo, human
Conditions: 400 mg BID; for AAS7 % Change difference for rilzabrutinib vs. placebo LS Mean (95% CI) / AAS7 % Change from baseline LS Mean (SE) / AAS7 Change difference for rilzabrutinib vs. placebo LS Mean (95% CI) / AAS7 Change from baseline LS Mean (SE) / AAS7 Post-baseline Mean (SD) / AAS7 = 0, Non-responder n (%) / AAS7 = 0, OR (95% CI) for rilzabrutinib vs. placebo / AAS7 = 0, RRD (%) for rilzabrutinib vs. placebo (95% CI) / Participants with AAS7 = 0, Responder n (%): angioedema at baseline; for Non-responder n (%), AAS7 = 0 / RRD (%) for rilzabrutinib vs. placebo (95% CI), AAS7 = 0 / Responder n (%), AAS7 = 0 / OR (95% CI) for rilzabrutinib vs. placebo, AAS7 = 0: outlier removed
Text: The study comprises a 12 week, randomized, double-blind, placebo-controlled, multi-center, dose-ranging efficacy and safety phase, followed by a 40 week open label extension (OLE) phase (see FIG. 1). The study consists of three phases and an optional OLE phase. […] The weekly angioedema activity score (AAS7) was proposed as a tertiary endpoint. […] Patients were to complete the AAS using the e-diary. The e-diary was to be used once daily on the same time of each day recording of participant's answers to the angioedema activity score over 7 days (AAS7) questionnaire.

## CC(C)(C=C(C#N)C(=O)N1CCC[C@@H](n2nc(-c3ccc(Oc4ccccc4)cc3F)c3c(N)ncnc32)C1)N1CCN(C2COC2)CC1 [rilzabrutinib, (R)-2-[3-[4-amino-3-(2-fluoro-4-phenoxy-phenyl)pyrazolo[3,4-d]pyrimidin-1-yl]piperidine-1-carbonyl]-4-methyl-4-[4-(oxetan-3-yl)piperazin-1-yl]pent-2-enenitrile]
Week 1, ITT
  AAS7 % Change difference for rilzabrutinib vs. placebo LS Mean (95% CI): −40.37 (−70.92, −9.83) %
  AAS7 % Change from baseline LS Mean (SE): −60.34 (9.85) %
  AAS7 Change difference for rilzabrutinib vs. placebo LS Mean (95% CI): −9.84 (−22.84, 3.16)
  AAS7 Change from baseline LS Mean (SE): −24.34 (4.19)
  AAS7 Post-baseline Mean (SD): 23.35 (30.86)
Week 1, omalizumab-naïve
  Non-responder n (%), AAS7 = 0: 16 (45.7) n (%)
  RRD (%) for rilzabrutinib vs. placebo (95% CI), AAS7 = 0: 23.4 %
  Responder n (%), AAS7 = 0: 19 (54.3) n (%)
  AAS7 % Change difference for rilzabrutinib vs. placebo LS Mean (95% CI): −42.17 (−75.41, −8.93) %
  AAS7 = 0, Non-responder n (%): 15 (57.7) n (%)
  AAS7 = 0, OR (95% CI) for rilzabrutinib vs. placebo: 20.850
  AAS7 = 0, RRD (%) for rilzabrutinib vs. placebo (95% CI): 35.1 %
  AAS7 Change difference for rilzabrutinib vs. placebo LS Mean (95% CI): −9.69 (−23.74, 4.37)
  AAS7 Change from baseline LS Mean (SE): −23.46 (4.42)
  AAS7 Post-baseline Mean (SD): 25.15 (31.33)
  Participants with AAS7 = 0, Responder n (%): 11 (42.3) n (%)
Week 2, ITT
  AAS7 % Change difference for rilzabrutinib vs. placebo LS Mean (95% CI): −8.15 (−40.12, 23.82) %
  AAS7 % Change from baseline LS Mean (SE): −49.52 (12.60) %
  AAS7 Change difference for rilzabrutinib vs. placebo LS Mean (95% CI): −5.96 (−17.22, 5.30)
  AAS7 Change from baseline LS Mean (SE): −26.86 (4.43)
  AAS7 Post-baseline Mean (SD): 22.75 (28.74)
Week 2, omalizumab-naïve
  Non-responder n (%), AAS7 = 0: 18 (51.4) n (%)
  OR (95% CI) for rilzabrutinib vs. placebo, AAS7 = 0: 1.366
  RRD (%) for rilzabrutinib vs. placebo (95% CI), AAS7 = 0: 8.2 %
  Responder n (%), AAS7 = 0: 17 (48.6) n (%)
  AAS7 % Change difference for rilzabrutinib vs. placebo LS Mean (95% CI): −9.47 (−44.02, 25.08) %
  AAS7 % Change from baseline LS Mean (SE): −46.69 (13.31) %
  AAS7 = 0, Non-responder n (%): 17 (65.4) n (%)
  AAS7 = 0, OR (95% CI) for rilzabrutinib vs. placebo: 2.012
  AAS7 = 0, RRD (%) for rilzabrutinib vs. placebo (95% CI): 14.6 %
  AAS7 Post-baseline Mean (SD): 24.57 (29.12)
  Participants with AAS7 = 0, Responder n (%): 9 (34.6) n (%)
Week 3, ITT
  AAS7 % Change difference for rilzabrutinib vs. placebo LS Mean (95% CI): −7.33 (−47.50, 32.83) %
  AAS7 % Change from baseline LS Mean (SE): −55.85 (15.71) %
  AAS7 Change difference for rilzabrutinib vs. placebo LS Mean (95% CI): −11.42 (−22.95, 0.12)
  AAS7 Change from baseline LS Mean (SE): −35.57 (4.51)
  AAS7 Post-baseline Mean (SD): 14.81 (20.54)
Week 3, omalizumab-naïve
  Non-responder n (%), AAS7 = 0: 15 (42.9) n (%)
  OR (95% CI) for rilzabrutinib vs. placebo, AAS7 = 0: 2.357
  RRD (%) for rilzabrutinib vs. placebo (95% CI), AAS7 = 0: 21.6 %
  Responder n (%), AAS7 = 0: 20 (57.1) n (%)
  AAS7 % Change difference for rilzabrutinib vs. placebo LS Mean (95% CI): −5.01 (−48.85, 38.83) %
  AAS7 % Change from baseline LS Mean (SE): −52.68 (16.72) %
  AAS7 = 0, Non-responder n (%): 15 (57.7) n (%)
  AAS7 = 0, OR (95% CI) for rilzabrutinib vs. placebo: 2.703
  AAS7 = 0, RRD (%) for rilzabrutinib vs. placebo (95% CI): 20.8 %
  AAS7 Post-baseline Mean (SD): 15.95 (20.90)
  Participants with AAS7 = 0, Responder n (%): 11 (42.3) n (%)
Week 4, ITT
  AAS7 % Change from baseline LS Mean (SE): −60.60 (13.93) %
  AAS7 Change difference for rilzabrutinib vs. placebo LS Mean (95% CI): −12.73 (−23.88, −1.58)
  AAS7 Change from baseline LS Mean (SE): −35.34 (4.34)
  AAS7 Post-baseline Mean (SD): 13.70 (17.64)
Week 4, omalizumab-naïve
  Non-responder n (%), AAS7 = 0: 17 (48.6) n (%)
  OR (95% CI) for rilzabrutinib vs. placebo, AAS7 = 0: 1.361
  RRD (%) for rilzabrutinib vs. placebo (95% CI), AAS7 = 0: 7.4 %
  Responder n (%), AAS7 = 0: 18 (51.4) n (%)
  AAS7 % Change difference for rilzabrutinib vs. placebo LS Mean (95% CI): −28.19 (−67.14, 10.77) %
  AAS7 % Change from baseline LS Mean (SE): −58.12 (14.75) %
  AAS7 = 0, Non-responder n (%): 15 (57.7) n (%)
